Laboratory results: patent US20040192594A1 (priority 2002, published 2004)
Like-named read-outs stand apart in the source and are kept apart here.

Legend:
[1] = target: Torpedo maramorta AchR (Torpedo marmorata, UniProt P02711); design: Relative Affinity: reference not given here; conditions: cited from earlier work
[2] = tested on: cell lines in tissue culture
[3] = tested on: mice; conditions: mouse, in vivo, sc
[4] = tested on: mice; conditions: mouse, in vivo

Row | Molecule | IC50 [1] [µM] | Relative Affinity [1] | IC50 ([1]; read-out: IC50) [µM] | Toxicity to cell lines [2] | Time to death (average) [3] [min] | Paralysis in mice injected with the toxin [4]
1 | CN1CCCC1c1cccnc1 (stereo not drawn) [Nicotine] | 1400 | 0.19 |  |  |  | 
2 | C[N+](C)(C)CCOC(N)=O.[Cl-] [Carbamylcholinechloride] | 2800 | 0.09 |  |  |  | 
3 | C[N+](C)(C)CCOC(=O)CCCCCCC(=O)OCC[N+](C)(C)C.[I-].[I-] [Suderyldicholine] |  | 104.0 | 2.5 |  |  | 
4 | alpha Bungarotoxin |  | 30,952.0 | 0.0084 |  |  | 
5 | COc1cc2c3cc1Oc1cc(ccc1O)C[C@@H]1c4c(cc(OC)c(O)c4Oc4ccc(cc4)C[C@@H]3N(C)CC2)CC[N+]1(C)C [d-Tubocurarine] |  | 76.5 | 3.4 |  |  | 
6 | alpha cobratoxin |  | 1,529.0 | 0.17 | not toxic | 20.5 | very little or no paralysis
